Measured values from ChEMBL document CHEMBL1156572, “Synthesis, stereochemical identification, and selective inhibitory activity against human monoamine oxidase-B of 2-methylcyclohexylidene-(4-arylthiazol-2-yl)hydrazones” (J Med Chem, 2008).

Legend:
[1] = target: T1, Amine oxidase [flavin-containing] A (Homo sapiens, UniProt P21397); details: read-out: INH
T1 sequence (P21397 whole entry): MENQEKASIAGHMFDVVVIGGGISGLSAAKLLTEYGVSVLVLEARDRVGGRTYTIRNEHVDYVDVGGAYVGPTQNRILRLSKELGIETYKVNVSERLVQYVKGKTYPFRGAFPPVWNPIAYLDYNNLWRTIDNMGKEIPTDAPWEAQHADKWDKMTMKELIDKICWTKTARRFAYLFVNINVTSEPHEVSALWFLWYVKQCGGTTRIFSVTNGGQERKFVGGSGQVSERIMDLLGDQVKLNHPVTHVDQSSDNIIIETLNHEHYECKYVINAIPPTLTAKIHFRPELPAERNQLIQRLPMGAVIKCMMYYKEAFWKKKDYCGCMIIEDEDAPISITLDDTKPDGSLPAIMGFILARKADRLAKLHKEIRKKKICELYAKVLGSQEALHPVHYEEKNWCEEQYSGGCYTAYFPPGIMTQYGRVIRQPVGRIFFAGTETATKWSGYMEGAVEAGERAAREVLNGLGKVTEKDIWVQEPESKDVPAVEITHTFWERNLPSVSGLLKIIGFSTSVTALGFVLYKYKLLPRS
Description: Inhibition of human recombinant MAOA before repeated washing at 500 uM

[2] = target: T1, Amine oxidase [flavin-containing] A; details: read-out: INH; remark: listed apart in the source
Description: Inhibition of human recombinant MAOA after washing at 500 uM by centrifugation-ultrafiltration method

Q: For `O=C(NCCN1CCOCC1)c1ccc(Cl)cc1` [MOCLOBEMIDE], which inhibition at 500 µM [1] is on record?
A: 86.8%

Q: And the inhibition at 500 µM [2]?
A: 10.3%
